Test results: patent publication US12239686B2, “Immune checkpoint inhibitor combinations” (LYTIX BIOPHARMA AS, priority 2014, dated 2025)
Non-standard residues stand in square brackets, D forms with d. Residues, ends and D or L forms follow the SMILES beside them. No end group written: not given here. Bip = N[C@@H](Cc1ccc(-c2ccccc2)cc1)C(=O)O; dBip = N[C@H](Cc1ccc(-c2ccccc2)cc1)C(=O)O; Dip = N[C@H](C(=O)O)C(c1ccccc1)c1ccccc1

Assays:
Format in all cases: cell-based, human
[1] = test system: HL-60/ADR; test: In vitro cytotoxic activity, MTS assay; resistance index; conditions: HL-60/ADR vs sensitive HL-60 (doxorubicin resistance)
Method: (§1) Tumor cells were grown as adherent monolayers or as suspensions at 37° C. in a humidified atmosphere (5% CO2, 95% air). The culture medium was RPMI 1640 containing 2 mM L-glutamine (Lonza, Belgium) and supplemented with 10% fetal bovine serum (FBS, Lonza). For experimental use, the adherent cells were detached from the culture flask by a 5-minute treatment with trypsin-versene (Lonza), diluted in Hanks' medium without calcium or magnesium (Lonza) and neutralized by addition of complete culture medium. Cells were counted in a hemocytometer and their viability was assessed by 0.25% trypan blue exclusion.
(§2) Tumor cells were plated in 96-well flat-bottom microtitration plates (Nunc, Dutscher, Brumath, France) and incubated at 37° C. for 24 hours before treatment in 190 μl of drug-free culture medium supplemented or not with 10% FBS for adherent or suspension growing cell lines, respectively.
(§3) The adherent cell lines were washed once with 200 μl FBS-free culture medium before treatment. Tumor cells were incubated for 4 hours with 10 concentrations of compounds in ¼ dilution step with a top dose of 400 μM (range 4×10^−4 to 4×10^−10 M), with 1% (final concentration) Triton X-100 as positive control and FBS-free culture medium as negative control. The cells (190 μl) were incubated in a 200 μl final volume of FBS-free culture medium containing test substances at 37° C. under 5% CO2.
(§4) Three independent experiments were performed, each concentration being tested in quadruplicate. Control cells were treated with vehicle alone. At the end of treatments, the cytotoxic activity was evaluated by a MTS assay (see § 3.3).
(§5) Like MTT, MTS is bioreduced by cells into a formazan product that is directly soluble in culture medium without processing, unlike MTT.
(§6) At the end of the cells treatment, 40 μl of a 0.22 μm filtered freshly combined solution of MTS (20 ml at 2 mg/ml, Ref G1111, Batch 235897, Exp 03/2009, Promega, Charbonnières, France) and PMS (1 ml at 0.92 mg/ml, Ref P9625, Batch 065K0961, Sigma) in Dulbecco's Phosphate Buffered Saline (DPBS, Ref 17-513Q, Batch 6MB0152, Cambrex), were added in each well. Culture plates were incubated for 2 h at 37° C. Absorbency (OD) were measured at 490 nm in each well using VICTOR^3TM 1420 multilabeled counter (Wallac, PerkinElmer, Courtaboeuf, France).
(§7) [formula] • The OD values are the mean of 4 experimental measurements. • IC50: drug concentration to obtain a 50% inhibition of cell proliferation.
(§8) The dose-response curves were plotted using XLFit 3 (IDBS, United Kingdom). The IC50 determination values were calculated using the XLFit 3 software from semi-log curves. Individual IC50 determination values as well as mean and SD values were generated.
(§9) Resistance index was calculated using the following formula: […]
(§10) Resistance index was calculated for each compound for each couple of sensitive and resistant cell lines. Individual resistance index was calculated when IC50 values of both sensitive and corresponding resistant cell lines were determined within same experiment. In addition, resistance index was also calculated ratio of mean IC50 values obtained during three independent experiments.

[2] = test system: IGROV-1/CDDP; conditions: IGROV-1/CDDP vs IGROV-1 (cisplatin resistance)
Method: as §1, §2, §3, §4, §5, §6, §7, §8, §9, §10

[3] = test system: MCF-7/mdr; conditions: MCF-7/mdr vs sensitive MCF-7 (doxorubicin resistance)
Method: as §1, §2, §3, §4, §5, §6, §7, §8, §9, §10

[4] = test system: CCRF-CEM/VLB; test: Resistance index from MTS cytotoxicity; conditions: CCRF-CEM/VLB vs CCRF-CEM
Method: as §1, with “exclusion. […]” for “exclusion.”
Three independent experiments were performed, each concentration being tested in quadruplicate. […] At the end of treatments, the cytotoxic activity was evaluated by a MTS assay (see § 3.3). […]
as §6, with “Culture plates were incubated for 2 h at 37° C.” left out, “France). […]” for “France).”
as §9

[5] = test system: A375 cells; test: Confocal microscopy, fluorescence-labeled peptide internalization; conditions: 1.5 and 3 μM
Method: Fixed cells, fluorescence-labeled peptide-Subconfluential A375 cells were seeded at 8,000 cells/well as above, and transfected on the second day using the Lipofectamine LTX with Plus transfection reagents (Invitrogen) following the manufacturer's protocol. The mitochondria were labeled using the pDsRed2-Mito, and the nucleus was labeled using the GFP-Histon2B plasmid (Imaging Platform, University of Tromsø). A day after transfection, cells were washed twice with serum-free RPMI, and treated at different concentration and incubation periods with LTX-315 Pacific Blue or LTX-328 Pacific Blue.
Control cells were treated with unlabeled LTX-315 and also with serum-free RPMI only. After incubation, cells were fixed with 4% paraformaldehyde in PBS, and the wells were covered with Prolong Gold antifade (Invitrogen). Cells were further analyzed by use of a Leica TCS SP5 confocal microscope, with a […] objective. Pacific Blue, GFP and Ds Red were excited using UV, with 488 and 561 lasers, and fluorescence channels were sequentially detected using the following band passes: UV: 420-480 nm (with attenuation), 488: 501-550 nm and 561: 576-676 nm.

Molecule: N=C(N)NCCC[C@H](NC(=O)[C@H](Cc1c[nH]c2ccccc12)NC(=O)[C@H](Cc1c[nH]c2ccccc12)NC(=O)[C@H](CCCNC(=N)N)NC(=O)[C@H](CCCNC(=N)N)NC(=O)[C@@H](NC(=O)[C@H](Cc1c[nH]c2ccccc12)NC(=O)[C@H](CCCNC(=N)N)NC(=O)[C@@H](N)CCCNC(=N)N)C(c1ccccc1)c1ccccc1)C(N)=O [LTX-320, R-R-W-Dip-R-R-W-W-R-NH2] (H-RRW[Dip]RRWWR-NH2; N-terminus assumed)
- Resistance index (RI) [1]: 0.90
- Resistance index (RI) [2]: 0.49
- Resistance index (RI) [3]: 1.19

Molecule: NCCCC[C@@H](N)C(=O)N[C@H](CCCCN)C(=O)N[C@H](Cc1ccc(-c2ccccc2)cc1)C(=O)N[C@H](Cc1c[nH]c2ccccc12)C(=O)N[C@H](CCCCN)C(=O)N[C@H](CCCCN)C(=O)N[C@H](Cc1c[nH]c2ccccc12)C(=O)N[C@H](Cc1c[nH]c2ccccc12)C(=O)N[C@H](CCCCN)C(N)=O [LTX-329, k-k-bip-w-k-k-w-w-k-NH2] (H-[dK][dK][dBip][dW][dK][dK][dW][dW][dK]-NH2; N-terminus assumed)
- Resistance index (RI) [4]: 0.76
- Resistance index (RI) [1]: 0.80
- Resistance index (RI) [2]: 0.46
- Resistance index (RI) [3]: 1.07

Molecule: NCCCC[C@H](NC(=O)[C@H](Cc1c[nH]c2ccccc12)NC(=O)[C@H](CCCCN)NC(=O)[C@H](CCCCN)NC(=O)[C@@H](NC(=O)[C@H](Cc1c[nH]c2ccccc12)NC(=O)[C@H](CCCCN)NC(=O)[C@H](CCCCN)NC(=O)[C@@H](N)Cc1c[nH]c2ccccc12)C(c1ccccc1)c1ccccc1)C(N)=O [LTX-302, W-K-K-W-Dip-K-K-W-K-NH2] (H-WKKW[Dip]KKWK-NH2; N-terminus assumed)
- Resistance index (RI) [1]: 1.31
- Resistance index (RI) [2]: 0.33
- Resistance index (RI) [3]: 1.23

Molecule: KAQ[Dip]QKQAW-NH2 [LTX-328, reference compound]
- internalization of Pacific Blue-labeled peptide [5]: did not demonstrate any internalization

Molecule: NCCCC[C@H](NC(=O)[C@H](Cc1c[nH]c2ccccc12)NC(=O)[C@H](Cc1c[nH]c2ccccc12)NC(=O)[C@H](CCCCN)NC(=O)[C@H](CCCCN)NC(=O)[C@H](Cc1c[nH]c2ccccc12)NC(=O)[C@H](Cc1ccc(-c2ccccc2)cc1)NC(=O)[C@H](CCCCN)NC(=O)[C@@H](N)CCCCN)C(N)=O [LTX-313, K-K-Bip-W-K-K-W-W-K-NH2] (H-KK[Bip]WKKWWK-NH2; N-terminus assumed)
- Resistance index (RI) [4]: 0.76
- Resistance index (RI) [1]: 1.16
- Resistance index (RI) [2]: 0.49
- Resistance index (RI) [3]: 1.24
